Measurements reported in US7807854B2, “Effective use method of medicaments and method of preventing expression of side effect” (priority 2004, dated 2010).

Assays:
Assay type in all cases: in vivo
skin allograft = assay: Prolonging effect on skin allograft survival between MHC-compatible rat strains (LEW donor, F344 recipient)
Text: Five animals were included per group, and all rats were bread in separate cages. LEW(RT1^l) was selected as donor, and F344(RT1^lvl) was selected as recipient. A part of dermis (1.8×1.8 cm) on the back of recipient was excised, and after giving several drops of penicillin solution (40,000 U/mL, in saline) thereon, a full thickness skin graft (1.8×1.8 cm) prepared from abdominal part of donor was put thereon. First-aid adhesive tape (30×72 mm) was applied so that the center pad thereof lies on the graft, and secured by binding aeration tape (adhesive bandage, 3.8×15 cm) therearound. At 5 days, the first-aid adhesive tape and the aeration tape were removed by cutting with scissors.
Drug administration was conducted by orally administering 0.5 mL/100 g B.W. of drug once a day everyday from the day of skin transplantation. Control group was received distilled water. As the CsA, Sandimmun injection (50 mg/mL) diluted in distilled water was administered. As the FK506, the filling of Prograf capsule (Fujisawa Pharmaceutical Co., Ltd.) suspended in distilled water was administered. […] A combinational administration group was received a mixture prepared by mixing liquids to be administered right before administration.
Grafts were observed everyday from fifth day of transplantation at which the first-aid adhesive tape was removed, and the condition that 90% or more of graft epithelium necrotized to turn brown was determined as occurrence of rejection. Number of days from transplantation to determination of rejection was defined as a survival time.
Mean value of survival times for each group was calculated as a mean survival time (MST). In each group (n=5), the third-longest survival time was defined as a median value.

adjuvant arthritis = assay: Rat adjuvant arthritis (AA) model, hind limb volume increase; conditions: for Inhibition of adjuvant arthritis (hind limb volume increase): oral once daily, Day 21
Experimental: In a footpad of right hind limb of 6 or 7-week-old female LEW/Crj rat (Charles River Japan, Inc.), 0.05 mL (0.6 mg/animal) of killed M. butyricum (12 mg/mL) suspended in liquid paraffin was intradermally injected to cause arthritis (Day 0). Test compound was dissolved or suspended in pure water and orally administered in a volume of 0.5 mL per 100 g of body weight of rat. Adjuvant control was received only pure water. As for the combinational administration group, an aqueous solution of KNF-299 and an aqueous solution of MTX(Sigma) were administered after being mixed before administration. Administration was conducted once a day everyday from Day 0 to end of the experiment. Evaluation of arthritis was made by measuring volumes of left and right hind limbs by using a volume meter (MK-550, Muromachi Kikai) at Day 0, 3, 8, 14, 17, and 21, and determining an increase relative to hind limb at Day 0.

transplanted heart = assay: Prolonging effect on heart graft survival between MHC-incompatible rat strains (DA donor, LEW recipient)
Experimental: Effect of KNF-299 was examined in allogeneic heart transplantation between MHC-incompatible rats. Using combination of DA (RT1^a) rat as a donor, and LEW (RT1^l) rat as a recipient, heterotopic heart transplantation in which heart of donor is joined to neck vessel of recipient with a cuff was conducted with reference to a literature (Microsurgery; 21, 16-21, 2001) or the like.
Drug was administered orally once a day everyday from the day of heart transplantation. MPA was prepared from the product purchased from Wako Pure Chemical Industries, Ltd. so that the concentration was 20 mg/mL in a saline containing 0.5% carboxymethyl cellulose, 0.4% Tween 80, and 0.9% benzyl alcohol, and administered in 0.1 mL/100 g B.W.
KNF-299 was dissolved in distilled water in a concentration of 0.06 mg/mL, and administered in 0.5 mL/100 g B.W. A control group was received a vehicle used for MPA administration liquid.
Cardiac pulsation of the transplanted heart was checked by inspection or palpation, and determination of rejection was made when cardiac pulsation stopped. Number of days from transplantation to determination of rejection was defined as survival time. Mean value of survival time in each group was calculated as mean survival time (MST).

[1] = FK506 3 mg/kg oral once daily, third test (headed Test 2)
[2] = KNF-299 0.03 mg/kg oral once daily, Test 2
[3] = KNF-299 0.1 mg/kg oral once daily, third test (headed Test 2)

## C=CC[C@@H]1/C=C(\C)C[C@H](C)C[C@H](OC)[C@H]2O[C@@](O)(C(=O)C(=O)N3CCCC[C@H]3C(=O)O[C@H](/C(C)=C/[C@@H]3CC[C@@H](O)[C@H](OC)C3)[C@H](C)[C@@H](O)CC1=O)[C@H](C)C[C@@H]2OC [FK506, tacrolimus, reference compound]
Skin allograft; [1]
  Survival time (day) of skin graft, MST: 9.2 days
  Survival time (day) of skin graft, Median: 9.0 days

## NC(CO)(CO)CCc1ccc(Sc2cccc(OCc3ccccc3)c2)cc1Cl [KNF-299, 2-amino-2-[4-(3-benzyloxyphenylthio)-2-chlorophenyl]ethyl-1,3-propanediol]
Adjuvant arthritis; KNF-299 0.01 mg/kg alone
  Inhibition of adjuvant arthritis (hind limb volume increase): 36%
Adjuvant arthritis; KNF-299 0.1 mg/kg p.o. once daily, FIG. 1
  Ability to prevent onset of adjuvant arthritis: reaches almost maximum
Transplanted heart; KNF-299 0.3 mg/kg oral once daily
  Survival time (day) of transplanted heart, MST: 7.0 days
Transplanted heart; KNF-299 0.3 mg/kg single administration
  Prolonging effect on heart graft mean survival time compared to control group: 1.2 days
Skin allograft; [2]
  Survival time (day) of skin graft, MST: 9.0 days
  Survival time (day) of skin graft, Median: 9.0 days
Skin allograft; [3]
  Survival time (day) of skin graft, MST: 8.8 days
  Survival time (day) of skin graft, Median: 9.0 days
Skin allograft; KNF-299 3 mg/kg oral once daily, Test 1
  Survival time (day) of skin graft, Median: >30 days
Skin allograft; KNF-299 3 mg/kg single administration
  Effect on skin graft survival (in words): clear prolonging effect

## COc1c(C)c2c(c(O)c1C/C=C(\C)CCC(=O)O)C(=O)OC2 [MPA, mycophenolic acid, reference compound]
Transplanted heart; MPA 20 mg/kg oral once daily
  Survival time (day) of transplanted heart, MST: >54.4 days
Transplanted heart; MPA 20 mg/kg single administration
  Rejection preventing effect on transplanted heart (in words): insufficient

## CN(Cc1cnc2nc(N)nc(N)c2n1)c1ccc(C(=O)N[C@@H](CCC(=O)O)C(=O)O)cc1 [MTX, methotrexate]
Adjuvant arthritis; MTX 0.025 mg/kg alone, not significant
  Inhibition of adjuvant arthritis (hind limb volume increase): 20%
Adjuvant arthritis; MTX 0.03 mg/kg oral once daily, FIG. 2
  Ability to prevent onset of adjuvant arthritis: not observed
Adjuvant arthritis; MTX 0.05 mg/kg alone, not significant
  Inhibition of adjuvant arthritis (hind limb volume increase): 35%
Adjuvant arthritis; MTX 0.1 mg/kg oral once daily, FIG. 2
  Ability to prevent onset of adjuvant arthritis: reached maximum
